Measurements published in patent publication US10301257B2, “Use of acylsulfonamides for improving plant yield” (BAYER INTELLECTUAL PROPERTY GMBH, priority 2011, dated 2019).

Tests used:
Format in all cases: in vivo
[1] = tested on: spring oilseed rape (canola); assay: Field trial: grain yield of spring oilseed rape (canola), postemergence CPA + tebuconazole (TBC)
Description: (§1) The trials have been carried out under natural field conditions (plot trials, 10 square meter plots, 2-4 replications).
(§2) The applications have been done with seed treatment, pre- or post-emergence treatments straight (alone, 1 application) or sequential treatments e.g. seed treatment followed by pre-emergence and/or post-emergence spray applications. The pre- or post-emergence applications were made with spray applications using 100-300 I/water per hectare. The growth stage of the crops species at the time of application are reported in the result tables. The dose rates of the herbicidal active ingredients applied alone respective in sequential application are also described in the result tables.
(§3) The assessments have been done via visual ratings (0-100% scale) or counting. The trials have been harvested after crops reached the full maturity. After the harvest the total weight of kernels/seeds/beets per plot was measured. The results are reported as means over 2-4 replications. The time between applications and assessments or countings/harvest are described in the result tables as well.

spring wheat [2] = assay: Field trial: grain yield of spring wheat, postemergence cyprosulfamide (CPA) + epoxiconazole (EPC)
Description: as §1, §2, §3

spring wheat [3] = assay: Field trial: gluten content of spring wheat grains, postemergence application of Cyprosulfamide; conditions: 35 days after application
Description: as §1, §2, §3

winter wheat [4] = assay: Field trial: grain yield of winter wheat, preemergence application of Cyprosulfamide
Description: as §1, §2, §3

rice = assay: Field trial: grain yield of rice, sequential application of Cyprosulfamide
Description: (§4) The trials have been carried out under natural field conditions (plot trials, 10 square meter plots, 2-4 replications). The applications have been done with seed treatment, pre- or post-emergence treatments straight (alone, 1 application) or sequential treatments e.g. seed treatment followed by pre-emergence and/or post-emergence spray applications. The pre- or post-emergence applications were made with spray applications using 100-300 I/water per hectare. The growth stage of the crops species at the time of application are reported in the result tables. The dose rates of the herbicidal active ingredients applied alone respective in sequential application are also described in the result tables. The assessments have been done via visual ratings (0-100% scale) or counting. The trials have been harvested after crops reached the full maturity. After the harvest the total weight of kernels/seeds/beets per plot was measured. The results are reported as means over 2-4 replications. The time between applications and assessments or countings/harvest are described in the result tables as well. The active ingredients have been applied to the untreated, dry seeds together with a carrier. After a short period of time to let the seeds dry, they were ready to be sown in the pot or field using standard equipments.

corn (maize) = assay: Field trial: grain yield of corn (maize) after seed treatment with Cyprosulfamide; conditions: for Difference(%) vs. UTC / Relative %: corn (maize) grain yield; for Relative %: UTC = 100%; for Yield (grain yield at harvest): corn (maize), seed treatment prior planting, 110 days after planting (short season variety)
Description: as §4

soybeans = assay: Field trial: grain yield of soybeans, postemergence application of Cyprosulfamide; conditions: 100 g ai/ha
Description: as §1, §2, §3

corn [5] = assay: Field trial: biomass yield and plant density of corn, sequential application of Cyprosulfamide; conditions: 0.15 g ai/kg seed fb 3 × 50 g ai/ha post, 98 days after emergence
Description: as §4

cotton = assay: Field trial: lint yield of cotton, postemergence application of Cyprosulfamide; conditions: 100 g ai/ha
Description: as §1, §2, §3

corn [6] = assay: Field trial: grain yield of corn, postemergence application of Cyprosulfamide
Description: as §1, §2, §3

rice plants = assay: Field trial: germination and emergence of rice plants after seed treatment with Cyprosulfamide
Description: as §4

sugarbeet = assay: Field trial: sugar and beet yield of sugarbeet, sequential application of Cyprosulfamide; conditions: 0.15 mg ai/seed fb 3 × 50 g ai/ha post, 44 days after last postemergence treatment
Description: as §4

corn [7] = assay: Field trial: grain yield of corn, sequential application of Cyprosulfamide
Description: as §4

canola [8] = assay: Field trial: grain yield of canola, sequential application of Cyprosulfamide
Description: as §4

spring wheat [9] = assay: Field trial: grain yield of spring wheat, postemergence application of Cyprosulfamide
Description: as §1, §2, §3

canola [10] = assay: Field trial: grain yield of canola, postemergence treatment with Cyprosulfamide
Description: as §1, §2, §3

winter wheat [11] = assay: Field trial: grain yield (g/1000 kernel) of winter wheat, seed treatment with Cyprosulfamide; conditions: 1 g ai/kg seed
Description: as §4

CC(C)(C)C(O)(CCc1ccc(Cl)cc1)Cn1cncn1 (centres unmarked) [TBC, tebuconazole]
Difference(%) vs. UTC ([1]; canola grain yield, TBC 150, CPA + TBC 100 + 150 g ai/ha): +1.8%
Relative % ([1]; canola grain yield, TBC 150, CPA + TBC 100 + 150 g ai/ha, UTC = 100%): 101.8%
Yield (grain yield at harvest) ([1]; spring oilseed rape (canola), post-emergence spring, beginning of flowering, TBC 150 g ai/ha, CPA + TBC 100 + 150 g ai/ha, 92 days after application, UTC 3.91): 3.91 t/ha

Fc1ccc([C@]2(Cn3cncn3)O[C@H]2c2ccccc2Cl)cc1 (racemic) [EPC, epoxiconazole]
Difference(%) vs. UTC (spring wheat [2]; spring wheat grain yield, EPC 125, CPA + EPC 100 + 125 g ai/ha): +9.7%
Relative % (spring wheat [2]; spring wheat grain yield, EPC 125, CPA + EPC 100 + 125 g ai/ha, UTC = 100%): 109.7%^
Yield (grain yield at harvest) (spring wheat [2]; spring wheat, post-emergence spring, flag leaf sheath opening, EPC 125 g ai/ha, CPA + EPC 100 + 125 g ai/ha, 55 days after application, UTC 1.84): 2.02 t/ha

COc1ccccc1C(=O)NS(=O)(=O)c1ccc(C(=O)NC2CC2)cc1 [Cyprosulfamide, cyprosulfamide]
Yield Relative: relative gluten content in harvested grains (spring wheat [3]; 100 g ai/ha at ear emergence, UTC = 100%): 109%
Yield: gluten content (absolute) in harvested grains (spring wheat [3]; postemergence at ear emergence, 100 g ai/ha): 30.9
Difference(%) vs. UTC (winter wheat [4]; winter wheat grain yield, 100 g ai/ha preemergence): +11%
Relative % (winter wheat [4]; winter wheat grain yield, 100 g ai/ha preemergence, UTC = 100%): 111%
Yield (grain yield at harvest) (winter wheat [4]; winter wheat, preemergence autumn, 100 g ai/ha, 247 days after application): 5.88 t/ha
Difference(%) vs. UTC (rice; rice grain yield, sequential application): +5%
Relative (rice; rice grain yield, sequential application, UTC = 100%): 105%
Yield (grain yield at harvest) (rice; rice, 0.5 g ai/kg seed fb 3 × 50 g ai/ha post, 75 days after last application): 5.74 t/ha
Difference(%) vs. UTC (corn (maize); 0.15 mg ai/seed): +12%
Relative % (corn (maize); 0.15 mg ai/seed): 112%
Difference(%) vs. UTC (corn (maize); 0.225 mg ai/seed): +13%
Relative % (corn (maize); 0.225 mg ai/seed): 113%
Yield (grain yield at harvest) (corn (maize); 0.15 mg ai/seed): 8.32 t/ha
Yield (grain yield at harvest) (corn (maize); 0.225 mg ai/seed): 8.39 t/ha
Difference(%) vs. UTC (soybeans; soybean grain yield): +5%
Relative (soybeans; soybean grain yield, UTC = 100%): 105%
Yield (grain yield at harvest) (soybeans; soybeans, postemergence preflowering (GS 60), 45 days after application): 2.78 t/ha
Yield: Biomass yield at harvest (corn [5]; UTC 6.0): 7.5 t/ha
Yield: Plant density at harvest (corn [5]; UTC 14): 17.3 plants/sqm
Difference(%) vs. UTC (cotton; cotton lint yield): +16%
Relative (cotton; cotton lint yield, UTC = 100%): 116%
Yield t/ha (lint) (cotton; cotton lints at harvest, postemergence preflowering (GS 55), 90 days after application): 0.254 t/ha
Difference(%) vs. UTC (corn [6]; corn grain yield, 100 g ai/ha postemergence): +28%
Relative (corn [6]; corn grain yield, 100 g ai/ha postemergence, UTC = 100%): 128%
Yield (grain yield at harvest) (corn [6]; corn, postemergence at 6-8 leaves, 100 g ai/ha, 130 days after application): 5.60 t/ha
Difference(%) vs. UTC (rice plants; rice plants/10 m^2, 0.5 g ai/kg seed): +23%
Relative (rice plants; rice plants/10 m^2, 0.5 g ai/kg seed, UTC = 100%): 123%
plants/10 m^2 (germination and emergence) (rice plants; rice, seed treatment 0.5 g ai/kg seed, 12 days after emergence): 208 plants/10 m^2
Yield of beets (storage root/body) by weight at harvest (sugarbeet; UTC 59.3): 61.3 t/ha
Sugar Yield at harvest (sugarbeet; UTC 5778): 6110 kg/ha
Difference(%) vs. UTC (corn [7]; corn grain yield, sequential application): +38%
Relative (corn [7]; corn grain yield, sequential application, UTC = 100%): 138%
Yield (grain yield at harvest) (corn [7]; corn, 0.15 g ai/kg seed fb 3 × 50 g ai/ha post (2-4 leaves, 6-8 leaves, preflowering), 98 days after emergence): 14.1 t/ha
Difference(%) vs. UTC (canola [8]; canola grain yield, sequential application): +24%
Relative (canola [8]; canola grain yield, sequential application, UTC = 100%): 124%
Yield (grain yield at harvest) (canola [8]; canola, 0.5 g ai/kg seed fb 3 × 50 g ai/ha post (4-6 leaves, stem elongation, beginning of flowering), 63 days after application): 3.47 t/ha
Difference(%) vs. UTC (spring wheat [9]; spring wheat grain yield, 100 g ai/ha postemergence): +8%
Yield (grain yield at harvest) (spring wheat [9]; spring wheat, postemergence at beginning of emergence of the ears (GS49), 100 g ai/ha, 48 days after application): 3.83 t/ha
Difference(%) vs. UTC (canola [10]; canola grain yield, 100 g ai/ha postemergence): +19%
Relative (canola [10]; canola grain yield, 100 g ai/ha postemergence, UTC = 100%): 119%
Yield (grain yield at harvest) (canola [10]; canola, postemergence GS 52 pre flowering, 100 g ai/ha, 63 days after treatment): 2.62 t/ha
Difference(%) vs. UTC (winter wheat [11]; winter wheat g/1000 kernel): +8%
Relative (winter wheat [11]; winter wheat g/1000 kernel, UTC = 100%): 108%
Yield (grain yield at harvest) (winter wheat [11]; winter wheat, seed treatment prior planting, 290 days after planting): 39.2 g/1000 kernel
